Data on seven compounds can be found in US20120142750A1, “INDOLEAMINE 2,3-DIOXYGENASE PATHWAYS IN THE GENERATION OF REGULATORY T CELLS” (Regents of the University of Minnesota, priority 2005, published 2012).

One series deals with OT-I and A1 T cells. Briefly: Bystander-suppression assays (TDLN IDO+ DCs, OT-I, Tregs, A1 bystander cells). Format: cell-based, mouse. How it is done: Isolation of tumor-draining lymph node DCs.
Bystander-suppression assays. All experiments were repeated 3-5 times unless otherwise indicated. OT-I cells were sorted as CD8^+ spleen cells, gated on the CD11c^NEGB220^NEG fraction to exclude DCs. Sorted DCs from TDLN were mixed with 1×10^5 responder cells at a 1:40 ratio in V-bottom culture wells (Nunc). […] Sorted CD4^+ A1 cells (1×10^5) and CD11c^+ DCs (1:40 ratio) from normal CBA spleen were added as bystander cells. […] For transwell assays, 96-Multiwell insert plates (1 uM pore size, BD Falcon) were used and the number of cells in all groups was doubled.
Feeder layer. Plasmacytoid DCs and Tregs have been reported to require survival factors to maintain viability and function in vitro.
Readouts for T cell proliferation. […] After 72 hours, assays were stained for CD4 vs CD8 and CFSE fluorescence analyzed gated on CD4^+ (A1) and CD8^+ (OT-I) populations.
Anti-CD3 proliferation and preactivation assays. […] For pre-activation studies, 2×10^4 Tregs were cultured with 1×10^5T-depleted spleen cells plus 0.1 ug/ml αCD3 antibody and 200 U/ml IL-2 (R&D Systems) for 48 hours.

Series [1] concerns experimental autoimmune encephalomyelitis. The note with it: mouse model; cited from earlier work.
The next series deals with auto-reactive T cells. The conditions noted are these: cited from earlier work.
The test system of series [2] is P815 transfected with IDO. The note with it: concomitant administration; cited from earlier work.
For another series, the system named is Lewis Lung carcinoma. The note with it: Lewis Lung carcinoma model; cited from earlier work.
Series [3] has as its system primed CD4+ T cells / naive CD4+ T cells. Briefly: MLR assays of function of CpG-PDC or CpG-B cell primed CD4+ T cells. The conditions noted are these: KYN added to priming MLRs containing 1MT. It counts as cell-based, human. On the procedure: In vitro priming of naive CD4+ T cells. CD4+CD45RA+ naive T cells were primed with allogeneic PDCs or irradiated B cells (30 Gy) at a 10:1 ratio (e.g., 2×10^6 naive CD4+ T cells plus 2×105 PDCs per well in 24-well plates) with ODN 2216 or ODN 2006 present in RPMI 1640 medium supplemented with 10% human AB serum. 1 MT and/or KYN were added into CpG ODN-PDC or CpG ODN-B cell mediated naive CD4+ T cell priming cultures as indicated. In some experiments, blocking Abs against CD80, CD86, HLA-DR or the control IgG Ab (R&D Systems, Minneapolis, Minn.) were added to CpG-PDC-mediated naive CD4+ T cell priming cultures at a final Ab concentration ranging from 0.1 to 10 μg/ml. After 7 days, primed T cells in cultures were harvested, assessed for their surface phenotype, intracellular Foxp3 expression, and their function in MLR assays.
MLR assays. […] In all T cell proliferation assays, plates were incubated at 37° C. for 5 days and pulsed with 1 μCi of 3H-thymidine per well for the last 18 hours before harvesting. All determinations were carried out in triplicate and 3H-thymidine incorporation was determined.

For series [4], the system named is PDCs and allogeneic naive CD4+ T cells. Briefly: In vitro priming of naive CD4+ T cells by allogeneic PDCs: CD4+CD25+Foxp3+ Treg generation (flow cytometry). Format: cell-based, human. From the text:
PDC, B, and T cell isolation. Human PBMC were isolated under IRE-approved protocols from apheresis products of healthy blood donors (Memorial Blood Centers of Minnesota, Minneapolis, Minn.) by Ficoll-Paque density gradient centrifugation. Plasmascytoid dendritic cells (PDCs) were isolated from PBMC using BDCA-4 cell isolation kits and the MACS system, followed by staining and sorting to collect purified Lin-CD11c-CD123+ PDCs, as reported previously (Moseman et al., J Immunol 2004; 173:4433-4442). […] cells were isolated from PBMC using CD4 T cell isolation kits followed by positive selection with CD45RA microbeads. […] B cells were isolated from PBMC with CD19 microbeads and the MACS system to greater than 98% purity of CD19+ B cells. All cell isolations kits and microbeads were from Miltenyi Biotec (Bergisch Gladbach, Germany). Reagents. Phosphorothioate-modified type-A CpG ODN 2216: […] NO:2), type-B CpG ODN 2006: […] NO:3) (sequences are shown 5'-3'; small letters represent phosphorothioate linkage; capital letters represent phosphodiester linkage 3' of the base; bold represents CpGdinucleotides) were from Integrated DNA Technologies (Coralville, Iowa), diluted in PBS, and used at a final concentration of 1 microgran per milliliter (μg/ml). […] Kynurenine (L-KYN, Sigma-Aldrich) was used at a final concentration of 50 μM. In vitro priming of naive CD4+ T cells. CD4+CD45RA+ naive T cells were primed with allogeneic PDCs or irradiated B cells (30 Gy) at a 10:1 ratio (e.g., 2×10^6 naive CD4+ T cells plus 2×105 PDCs per well in 24-well plates) with ODN 2216 or ODN 2006 present in RPMI 1640 medium supplemented with 10% human AB serum. 1 MT and/or KYN were added into CpG ODN-PDC or CpG ODN-B cell mediated naive CD4+ T cell priming cultures as indicated. […] After 7 days, primed T cells in cultures were harvested, assessed for their surface phenotype, intracellular Foxp3 expression, and their function in MLR assays. […] Mean fluorescence intensity (MFI) and positive cell percentages of stained cells were determined by flow cytometry.
For orientation: A flow cytometer gives signals particle by particle.

In another series the test system is IDO protein in PDCs. Description: Western blot for IDO protein in cultured PDCs. Format: cell-based, human. The note with it: 48 hours culture with CpG ODN. On the procedure:
Western blots. Protein lysates were prepared from 2×10^5 fresh or cultured PDCs or B cells. Western blot was performed with antibody specific for IDO protein

In a further series the test system is PDCs. Briefly: Surface expression of CD80, CD86, HLA-DR on PDCs (flow cytometry). Format: cell-based, human. The conditions noted are these: CpG ODN stimulation 48 hours. The text has this: PDC, B, and T cell isolation. Human PBMC were isolated under IRE-approved protocols from apheresis products of healthy blood donors (Memorial Blood Centers of Minnesota, Minneapolis, Minn.) by Ficoll-Paque density gradient centrifugation. Plasmascytoid dendritic cells (PDCs) were isolated from PBMC using BDCA-4 cell isolation kits and the MACS system, followed by staining and sorting to collect purified Lin-CD11c-CD123+ PDCs, as reported previously (Moseman et al., J Immunol 2004; 173:4433-4442). CD4+CD45RA+ naïve T cells were isolated from PBMC using CD4 T cell isolation kits followed by positive selection with CD45RA microbeads. The purity of naïve CD4+ T cells was greater than 95% for CD4+CD45RA+ expression and less than 0.5% for CD25+ expression. B cells were isolated from PBMC with CD19 microbeads and the MACS system to greater than 98% purity of CD19+ B cells. All cell isolations kits and microbeads were from Miltenyi Biotec (Bergisch Gladbach, Germany).
Flow Cytometry. Fluorescent antibodies (Abs) against human CD3, CD4, CD11c, CD19, CD25, CD40, CD45, CD45RA, CD45RO, CD80, CD86, CD123, HLA-DR, lineage (Lin) markers, and isotype control Abs were from BD Biosciences (San Diego, Calif.). […] Mean fluorescence intensity (MFI) and positive cell percentages of stained cells were determined by flow cytometry.

The next series has as its system splenic Tregs. Briefly: Flow cytometry of CHOP and FoxP3 in splenic Tregs of treated mice. Format: in vivo, mouse. The conditions noted are these: wild-type mice. On the procedure:
(§1) CpG Oligonucleotides. CpG-ODNs (CpG no. 1826, […]; (SEQ ID NO:4) and sequence matched non-CpG-B no. 2138, […] (SEQ ID NO:5)) with fully phosphorothioate backbones were purchased from Coley Pharmaceuticals. Mice were injected with relatively high doses of ODNs (50 μg/mouse, i/v) as described (Mellor et al. J Immunol 2005; 175:5601-5605).
Analytical flow cytometry. Intracellular CHOP staining was performed as described (Munn et al. (2005) Immunity 22:1-10), using antibody sc-7351 (Santa Cruz Biotechnology, Santa Cruz, Calif.).

In series [5] the test system is BM3 T cells. Description: Ex vivo T cell suppression assays with sorted Tregs from treated mice. It counts as in vivo, mouse. On the procedure:
as §1
1-methyl-[D]-tryptophan (1 mT). 1 mT (catalog number 45, 248-3, Sigma) was prepared as a 20 mM stock solution in 0.1 N NaOH, adjusted to pH 7.4, and stored at −20° C. protected from light. For in vitro use, 1 mT was added to MLRs to a final concentration of 100 μM. For in vivo treatment, slow-release polymer pellets (*5 mg/day) containing 1 mT or vehicle alone were inserted under the dorsal skin as described (Munn et al. Science 1998; 281:1191-1193) 24 hours before CpG treatment.
Preparative flow cytometry to sort CD4+ T cells subsets. CD4+ T cell subsets were purified using a Mo-Flo cytometer as described (Mellor et al. J Immunol 2005; 175:5601-5605; Munn et al. Immunity 2005; 22:1-10).
Ex vivo T cell suppression assays. Suppression assays were performed by adding sorted CD4+ cells to T cell proliferation assays (72 hour thymidine incorporation assays) containing responder H-2K^b-specific splenocytes from BM3 TCR transgenic mice (nylon-wool enriched) and CD11c+ splenocytes (AutoMacs enriched) from CBK (H-2K^b transgenic CBA) mice prepared as described (Mellor et al. J Immunol 2005; 175:5601-5605).

For series [6], the system named is BM3 T cells. Briefly: Co-adoptive transfer of Tregs and BM3 T cells into CBK recipients. Format: in vivo, mouse. The conditions noted are these: 96 hours. How it is done:
Co-Adoptive Transfer. Purified (Mo-Flo sorted) CD4+CD25+ Tregs were prepared from spleens of CBK donor mice treated 24 hours previously with either 50 μg CpG or non-CpG. Tregs (1×10^6/recipient) were mixed with nylon-wool enriched BM3 responder T cells (5×10^6/recipient) and co-injected into CBK recipients (2-3 mice/group). Positive controls were CBK mice receiving BM3 T cells without Tregs; negative controls were CBA mice (lacking target antigen) receiving BM3 T cells. After 96 hours, mice were sacrificed and spleen cells stained with antibodies against CD8 (PerCP), CD25 (APC), H2K^b (PE) and biotinylated Ti98 (BM3 anti-clonotypic antibody, visualized with streptavidin APC (Tarazona et al. (1996) International Immunology 8:351-358). Except for Ti98, all antibodies were from Pharmingen (San Diego, Calif.).

Strand notation (5' to 3'): a small letter for the sugar, then the base; units joined by * are phosphorothioate-linked, units joined directly phosphodiester-linked; [ ] holds rarer units or linkages, { } end groups; capitals alone tell only the bases. d = 2'-deoxy (DNA)

With `N[C@@H](Cc1c[nH]c2ccccc12)C(=O)O` [tryptophan], the “IDO-induced bystander suppression, effect of added agent” value in the series on OT-I and A1 T cells (not in transwells, thymidine incorporation/CFSE, tryptophan 10× (250 uM)) is reported as “abrogated suppression”.

On to `Nc1c(O)cccc1C(=O)O` [3-hydroxyanthranilic acid], for which the “paralysis in experimental autoimmune encephalomyelitis” value in series [1] is on record as “reverse paralysis”. The “inflammatory cytokine production by auto-reactive T cells” value in the series on auto-reactive T cells is on record as “inhibit inflammatory cytokine production”.

With `Cn1cc(C[C@H](N)C(=O)O)c2ccccc21` [Inhibitor 1-MT, 1-methyl-tryptophan], in series [2], the “IDO-mediated prevention of P815 rejection by pre-immunized hosts” value is “substantially reversed”. Further, in the series with Lewis Lung carcinoma, the tumor outgrowth result is “significantly delayed tumor outgrowth”.

Turning to `COc1ccc(C=CC(=O)Nc2ccccc2C(=O)O)cc1OC` [3,4-DAA, N-(3,4,-Dimethoxycinnamoyl)anthranilic acid], the “paralysis in experimental autoimmune encephalomyelitis” value in series [1] is listed as “reverse paralysis”. Further, the “inflammatory cytokine production by auto-reactive T cells” value with auto-reactive T cells was “inhibit inflammatory cytokine production”.

For the compound `Nc1ccccc1C(=O)CC(N)C(=O)O` (stereo not shown) [KYN, Kynurenine], in [3], the “functional suppressor activity of PDC-primed T cells in MLR” value was “restored the generation of functional suppressor activity” and the “hyporesponsiveness of primed T cells to alloantigen stimulation in MLR” value is listed as “restored”. Also, the “bystander suppression with excess kynurenine when IDO blocked with 1MT” value in the series with OT-I and A1 T cells (1MT+25 uM kynurenine) was “did not recapitulate suppression”. For the same compound, the “CD4+CD25+Foxp3+ Treg generation in priming MLRs containing 1MT” value in series [4] (KYN 50 μM added with 1MT 250 μM, ODN 2216-PDC, day 7) is given as “restored CD4+CD25+Foxp3+ Treg generation”.

On to “ODN 2216: Phosphorothioate-modified type-A CpG ODN gGGGACGATCGTCgggggG (SEQ ID NO:2) (DNA dG*dGdGdGdAdCdGdAdTdCdGdTdCdG*dG*dG*dG*dG*dG)”, for which the “IDO expression of PDCs during culture” value in the series with IDO protein in PDCs is reported as “sustained their IDO expression”. Moreover, the “cell surface expression of CD80, CD86, HLA-DR on PDCs” value with PDCs was “upregulate cell surface expression”. The “frequency of PDC-induced CD4+CD25+Foxp3+ Tregs” value in series [4] (day 7 of cultures, CpG ODN 1 μg/ml, mean±SD, 5.7±3.1% without CpG ODN) is given as 21.6±5.2%.

Take “non-CpG: sequence matched non-CpG ODN TCCATGAGCTTCCTGAGCTT (SEQ ID NO:5) (DNA dT*dC*dC*dA*dT*dG*dA*dG*dC*dT*dT*dC*dC*dT*dG*dA*dG*dC*dT*dT)”: the “number of CHOP+ Tregs over basal levels” value in the series with splenic Tregs is reported as “only slightly increased”. Moreover, the “suppressor functions of purified Tregs from IDO-KO mice” value in the series on BM3 T cells [5] (IDO-KO mice) was “no significant increase in suppressor functions”. Also, the “suppression of BM3 T cell proliferation by purified Tregs from treated mice” value in the series on BM3 T cells [5] (mice treated 24 hours, 50 μg/mouse i/v, IDO-WT, 72 hour thymidine incorporation) was “did not suppress BM3 proliferation”. Besides, in the series on BM3 T cells [6], the “spleen tissue pathology after co-transfer of Tregs from treated donor mice” value is “did not prevent extensive tissue pathology”. Further, the “clonal expansion of BM3 T cells in vivo after co-transfer of Tregs from treated donor mice” value in the series on BM3 T cells [6] (donors treated 24 hours with 50 μg) was “did not inhibit”.
